The record followed here is patent US20170304530A1, “INFUSION PREPARATION” (priority 2010, published 2017).

Where a name gives a salt, the structure may show the parent alone.

This data set can be described thus: Remaining amount of each vitamin after 6 months storage at room temperature, measured by HPLC. Type of data set: physicochemical. To be noted: vitamin in Example 3 infusion preparation before mixing, stored at room temperature for 6 months. As to the method:
The infusion preparation (before mixing the first-chamber. infusion and the second-chamber infusion) was stored at room temperature for 6 months. Thereafter, the amount of each vitamin component contained in the first-chamber infusion or the second-chamber infusion was measured using HPLC. […] As is clear from the results, each of the vitamin components can be stably present in the infusion preparation even after 6 months storage.
Turning to `O=C1O[C@H]([C@@H](O)CO)C(O)=C1O` [Ascorbic acid], the “Remaining rate after 6 months storage (%)” value (“Remaining rate … (%)” below) stood at 99.9%.

For `O=C(O)CCCC[C@@H]1SC[C@@H]2NC(=O)N[C@@H]21` [Biotin], the “Remaining rate … (%)” value was found to be 97.8%.

Turning to `C=C1CC[C@H](O)C/C1=C/C=C1\CCC[C@]2(C)[C@@H]([C@H](C)CCCC(C)C)CC[C@@H]12` [Cholecalciferol], the “Remaining rate … (%)” value came out at 100.5%.

Regarding `Nc1nc2ncc(CNc3ccc(C(=O)N[C@@H](CCC(=O)O)C(=O)O)cc3)nc2c(=O)[nH]1` [Folic acid], the “Remaining rate … (%)” value came to 100.0%.

`NC(=O)c1cccnc1` [Nicotinamide]: the “Remaining rate … (%)” value was 99.6%.

For the compound `CC(C)(CO)[C@@H](O)C(=O)NCCCO` [Panthenol], the “Remaining rate … (%)” value turned out to be 100.4%.

Consider `CC1=C(C/C=C(\C)CCC[C@H](C)CCC[C@H](C)CCCC(C)C)C(=O)c2ccccc2C1=O` [Phytonadione], for which the “Remaining rate … (%)” value was found to be 101.5%.

With `Cc1ncc(CO)c(CO)c1O.Cl` [Pyridoxine hydrochloride], the “Remaining rate … (%)” value came out at 99.3%.

Turning to `Cc1cc2nc3c(=O)[nH]c(=O)nc-3n(C[C@H](O)[C@H](O)[C@H](O)COP(=O)(O)O)c2cc1C` [Riboflavin sodium phosphate], the “Remaining rate … (%)” value is 100.1%.

As for `Cc1ncc(C[n+]2csc(CCO)c2C)c(N)n1` [Thiamine chloride hydrochloride], the “Remaining rate … (%)” value was 98.7%.

On to `CC(=O)Oc1c(C)c(C)c2c(c1C)CCC(C)(CCC[C@H](C)CCC[C@H](C)CCCC(C)C)O2` (stereo partly drawn) [Tocopherol acetate], for which the “Remaining rate … (%)” value amounted to 99.0%.

Regarding Cyanocobalamin, the “Remaining rate … (%)” value was determined as 103.2%.
